# Measurements reported in US20060165732A1, “Fungal antigens and eosinophil activity” (priority 2002, published 2006).
# Read-outs that look alike come from different tables or passages of the source.
# B1: OVA: OVA antigen used for sensitization and challenge of mice (protein, UniProt P01012 2-386, looked up)
# Ovalbumin: GSIGAASMEFCFDVFKELKVHHANENIFYCPIAIMSALAMVYLGAKDSTRTQINKVVRFDKLPGFGDSIEAQCGTSVNVHSSLRDILNQITKPNDVYSFSLASRLYAEERYPILPEYLQCVKELYRGGLEPINFQTAADQARELINSWVESQTNGIIRNVLQPSSVDSQTAMVLVNAIVFKGLWEKAFKDEDTQAMPFRVTEQESKPVQMMYQIGLFRVASMASEKMKILELPFASGTMSMLVLLPDEVSGLEQLESIINFEKLTEWTSSNVMEERKIKVYLPRMKMEEKYNLTSVLMAMGITDVFSSSANLSGISSAESLKISQAVHAAHAEINEAGREVVGSAEAGVDAASVSEEFRADHPFLFCIKHIATNAVLFFGRCVSP
# Legend:
# [1] = test system: Alternaria-induced eosinophil degranulation; assay: Effect of test agents on Alternaria-induced eosinophil degranulation (EDN release); format: cell-based, human
# Procedure: (§1) To monitor eosinophil degranulation, 200 μL of freshly isolated eosinophils were resuspended in HBSS with 25 mM HEPES and 0.01% gelatin at 5×10^5 cells/mL and incubated with the a particular fungal extract. After incubation for 3 hours at 37° C. in a 5% CO2 atmosphere, cell-free supernatants from each well were collected and stored at −20° C. To quantitate eosinophil degranulation, the concentration of one of the eosinophil granule proteins in the sample supernatants, EDN, was measured by specific RIA, as described previously (Horie & Kita, 1994, J. Immunol., 152:5457). The RIA is a double-Ab competition assay in which radioiodinated EDN, rabbit anti-EDN Ab, and burro anti-rabbit IgG are used (Abu-Ghazaleh et al., 1989, J. Immunol., 142:2393). Sensitivity of the kit was 2 ng/mL. Total cellular EDN was measured in parallel supernatants from cells lysed with Nonidet P-40 detergent (Sigma Chemical Co.). All experiments were conducted in duplicate.
# The mechanism of the eosinophil degranulation response to Alternaria antigens was examined. To test whether Alternaria proteases are involved in eosinophil activation, Alternaria extracts either were pretreated with a cocktail of protease inhibitors (Complete™, Roche Molecular Biochemicals, Indianapolis, Ind.) or were not pretreated (control). Eosinophils then were incubated with the pretreated or control Alternaria extracts for 4 hours, and EDN release was measured.
# (§2) To examine the effect of cytochalasin B in the eosinophil response, eosinophils were preincubated with or without cytochalasin B (5 μg/mL) for 15 minutes at 37° C. After preincubation, eosinophils were exposed to either Alternaria culture extract (100 μg/mL) or IL-5 (10 ng/mL) for 3 hours at 37° C., and EDN release from eosinophils was measured.
# (§3) Next, the effect of a Ca^2+ chelator, EGTA, on Alternaria- or IL-5-induced eosinophil degranulation was investigated.
# (§4) Eosinophils were pre-treated with various concentrations of ionomycin (FIG. 8D) or thapsigargin (FIG. 8E) for 15 minutes, and then exposed to Alternaria culture extract (100 μg/mL) or IL-5 (10 ng/mL) for 3 hours at 37° C.
# [2] = test system: IL-5-induced eosinophil degranulation; format: cell-based, human
# Procedure: as §1, §2, §3, §4
# [3] = test system: PBMC; assay: Effect of fluticasone propionate on IL-5 production by PBMC (ELISA); format: cell-based, human
# Procedure: PBMC were isolated from 30 mL of blood drawn from patients with chronic sinusitis, bronchial asthma, or normal individuals by density centrifugation using Histopaque®. Cells were then suspended in RPMI 1640 medium supplemented with 10% fetal bovine serum at 2×10^6 cells/mL and incubated for 3 days at 37° C. in 96-well tissue culture plates with medium alone, 25 μg/mL Alternaria cellular extract, 25 μg/mL Dermatophagoides Pteronyssinus (Der P; Greer Laboratories; a mite allergen), or 5 μg/mL Concanavalin A. Since Concanavalin A is a very potent inducer, supernatants of PBMC were diluted 50-fold before they were analyzed for the presence of IL-5.
# To examine the effects of glucocorticoids on the eosinophilic response, fluticasone propionate (10^−10 M to 10^−6 M, GlaxoSmithKline) was added to the culture. After incubation, cell-free supernatants were collected and analyzed for IL-5 concentrations using an ELISA assay (Endogen, Inc.). In the experiments with Concanavalin A, the amount of IL-5 determined by ELISA was multiplied by 50 to account for the dilution factor.
# [4] = test system: mice; assay: Airway eosinophilia in mice (BAL fluid cells, DiffQuick stain); format: in vivo
# Procedure: Mice were sensitized at day 14 with 20 μg/dose OVA or 100 μg/dose Alternaria extracts (cellular or culture) by intraperitoneal injection of the antigens followed by intranasal challenge with the appropriate antigen at 250 μg/dose on days 28, 30, and 32.
# Eosinophils were detected in mice by collecting BAL fluids, isolating the cells using a cytospin preparation, and staining the cells with DiffQuick stain (DADE Behring, Inc., Newark, Del.).
# Furthermore, at 250 μg/dose of Alternaria culture extract, about 10% of the mice died before day 8 due to massive respiratory failure.
# To examine the role of IL-5 in airway eosinophilia induced by Alternaria culture extracts, mice were pre-treated with 25 μg/dose of an anti-IL-5 mAb (Pharmingen) or a control antibody (rat IgG) 24 hours before being intranasally challenged at days 0, 3, and 6 with 250 μg/dose OVA, or 250 μg/dose Alternaria culture extract. The number of eosinophils was analyzed by DiffQuick staining at day 8.
# [5] = pre-treatment 15 minutes, various concentrations, Alternaria culture extract 100 μg/mL, 3 hours
# [6] = pre-treatment 15 minutes, various concentrations, IL-5 10 ng/mL, 3 hours
# [7] = fluticasone 10^−10 M, asthma patient PBMC, 3 days
# [8] = fluticasone 10^−10 M, medium alone, asthma patient PBMC, 3 days
# [9] = fluticasone 10^−10 M, multiplied by 50 for dilution
# [10] = fluticasone 10^−10 M, supernatant diluted 50-fold
molecule,measurement,setting,value
C[C@H](CCC(=O)O)C[C@H](C)C[C@H](C)C(=O)/C=C(\O)[C@H](C)C[C@H](C)C/C=C/[C@@H](C)[C@@H](O)[C@@H](C)[C@@H](O)C[C@@H]1CC[C@@](C)([C@H]2CC[C@@](C)([C@@H](C)O)O2)O1 [ionomycin],effect on Alternaria-induced eosinophil degranulation,[1]; [5],synergistically increased
same,effect on IL-5-induced eosinophil degranulation,[2]; [6],significantly inhibited
CN(C)CCCn1cc(C2=C(c3c[nH]c4ccccc34)C(=O)NC2=O)c2ccccc21 [GF109203X],effect on IL-5-induced eosinophil degranulation,[2]; various concentrations,partially inhibited
Cn1c2ccccc2c2c3c(c4c5ccccc5n(CCC#N)c4c21)CNC3=O [Go 6976],effect on IL-5-induced eosinophil degranulation,[2]; various concentrations,completely inhibited
C[S+]([O-])c1ccc(-c2nc(-c3ccncc3)c(-c3ccc(F)cc3)[nH]2)cc1 (stereo not drawn) [SB203580],effect on IL-5-induced eosinophil degranulation,[2]; various concentrations,completely inhibited
NCCc1ccc(S(=O)(=O)F)cc1 [AEBSF],inhibition of Alternaria-induced eosinophil degranulation,"[1]; Alternaria extracts pretreated with inhibitor, 4 hours, EDN release",89%
O=C(O)CN(CCOCCOCCN(CC(=O)O)CC(=O)O)CC(=O)O [EGTA],effect on Alternaria-induced eosinophil degranulation,"[1]; 1 mM, pretreatment 15 minutes",almost completely inhibited
same,effect on Alternaria-induced eosinophil degranulation,"[1]; 10 mM, pretreatment 15 minutes",almost completely inhibited
same,effect on IL-5-induced degranulation,"[2]; 1 mM, pretreatment 15 minutes",only partially inhibited
same,effect on IL-5-induced degranulation,"[2]; 10 mM, pretreatment 15 minutes",almost completely inhibited
Herbmycin,effect on IL-5-induced eosinophil degranulation,[2]; various concentrations,completely inhibited
COc1cccc(-c2cc(=O)c3ccccc3o2)c1N [PD98059],effect on IL-5-induced eosinophil degranulation,[2]; various concentrations,partially inhibited
"CCCC[C@@H](C=O)NC(=O)[C@H](CC(C)C)NC(=O)OCc1ccccc1 [calpeptin, Calpeptin]",effect on IL-5-induced eosinophil degranulation,[2]; various concentrations,partially inhibited
CC(=O)c1c(O)c(C)c(O)c(Cc2c(O)c3c(c(C(=O)/C=C/c4ccccc4)c2O)OC(C)(C)C=C3)c1O [Rottelerin],effect on IL-5-induced eosinophil degranulation,[2]; various concentrations,completely inhibited
C/C=C(/C)C(=O)O[C@H]1C(C)=C2[C@H]([C@@H]1OC(=O)CCCCCCC)[C@@](C)(OC(C)=O)C[C@H](OC(=O)CCC)[C@@]1(O)[C@H]2OC(=O)[C@@]1(C)O [thapsigargin],effect on Alternaria-induced eosinophil degranulation,[1]; [5],synergistically increased
same,effect on IL-5-induced eosinophil degranulation,[2]; [6],significantly inhibited
CCCCCCCCCCCCCCCCCCNC(=O)OCC(COC(=O)N(Cc1cccc[n+]1CC)C(C)=O)OC (stereo not drawn) [CV6209],IC50,"[1]; Homo sapiens, Eosinophil, read-out: IC50 for Alternaria-induced degranulation",~1000 nM
C=C1[C@@H](C)[C@H]2[C@H](Cc3ccccc3)NC(=O)[C@]23OC(=O)/C=C/[C@H](O)CCC[C@@H](C)C/C=C/[C@H]3[C@@H]1O [cytochalasin B],effect on Alternaria-induced eosinophil degranulation,"[1]; 5 μg/mL preincubation 15 minutes, Alternaria culture extract 100 μg/mL, 3 hours",not affected
same,effect on IL-5-induced degranulation,"[2]; 5 μg/mL preincubation 15 minutes, IL-5 10 ng/mL, 3 hours",inhibited
CCC(=O)O[C@]1(C(=O)SCF)[C@H](C)C[C@H]2[C@@H]3C[C@H](F)C4=CC(=O)C=C[C@]4(C)[C@@]3(F)[C@@H](O)C[C@@]21C [fluticasone propionate],IL-5 production in the presence of Concanavalin A,[3],inhibited
same,IL-5 production in Alternaria-induced PBMC,"[3]; 10^−10 M, lowest concentration",significantly inhibited
same,IL-5 production in the presence of Der P,[3]; 10—O M as printed,inhibited
same,"IL-5, Cellular Alternaria Extract (25 μg/mL), 1","[3]; fluticasone 10^−9 M, asthma patient PBMC, 3 days",0.4
same,"IL-5, Cellular Alternaria Extract (25 μg/mL), 1",[3]; [7],1.4
same,"IL-5, Cellular Alternaria Extract (25 μg/mL), 2",[3]; [7],3.9
same,"IL-5, Cellular Alternaria Extract (25 μg/mL), mean",[3]; [7],2.6
same,"IL-5, Der P (25 μg/mL), 2",[3]; [7],0.9
same,"IL-5, Der P (25 μg/mL), mean",[3]; [7],0.9
same,"IL-5, Con A (5 μg/mL), mean","[3]; fluticasone 10^−10 M, mean of values multiplied by 50",101
same,"IL-5, Medium, 1",[3]; [8],1.3
same,"IL-5, Medium, 2",[3]; [8],0.3
same,"IL-5, Medium, mean",[3]; [8],0.8
same,"IL-5, Con A (5 μg/mL), 1*50",[3]; [9],87
same,"IL-5, Con A (5 μg/mL), 2*50",[3]; [9],115
same,"IL-5, Con A (5 μg/mL), 1",[3]; [10],1.7
same,"IL-5, Con A (5 μg/mL), 2",[3]; [10],2.3
C=CC[C@@H]1/C=C(\C)C[C@H](C)C[C@H](OC)[C@H]2O[C@@](O)(C(=O)C(=O)N3CCCC[C@H]3C(=O)O[C@H](/C(C)=C/[C@@H]3CC[C@@H](O)[C@H](OC)C3)[C@H](C)[C@@H](O)CC1=O)[C@H](C)C[C@@H]2OC [FK-506],effect on IL-5-induced eosinophil degranulation,[2]; various concentrations,no effect
O=c1c(-c2ccc(O)cc2)coc2cc(O)cc(O)c12 [Genistein],effect on IL-5-induced eosinophil degranulation,[2]; various concentrations,completely inhibited
O=C(O)CN(CCN(CC(=O)O)CC(=O)O)CC(=O)O [EDTA],effect on Alternaria-induced eosinophil degranulation,[1]; various concentrations,completely inhibited
same,effect on IL-5-induced eosinophil degranulation,[2],completely inhibited
B1,airway eosinophilia in non-sensitized (naïve) mice,[4]; intranasal challenge only,not
same,airway eosinophilia in sensitized and challenged mice,"[4]; intraperitoneal sensitization day 14, intranasal challenge 250 μg/dose days 28, 30, 32",developed airway eosinophilia by day 34
